According to patent US5962291A, “Metal dependent catalytic antibodies and method for producing the same” (The Regents of the University of Colorado, priority 1997, dated 1999):

Columns and labels:
Format in all cases: biochemical, mice
[1] = system: monoclonal antibody 6A1A6 (metal dependent catalytic antibody, IgG); test: Spectrophotometric (405 nm) hydrolysis of p-nitrophenyl ester substrates by antibody 6A1A6; details: for Ki: pH 9.0, 10 mM MgCl2
Description: (§1) General. Because antibody 6A1A6, see Table 2, was metal dependent, a few precautions were taken to insure consistent results for all assays. […] EDTA was added to reactions to a concentration that removed the catalytic activity. MgCl2 or other metal salts were then added back to the reactions at the optimum level. Antibody concentration was adjusted for each system to obtain useable data in a reasonable reaction time and varied from 0.5-4 μM.
(§2) Kinetic analyses were done by standard methods as described. Rates were defined as initial velocities and reported in min^-1 or sec^-1. Each assay was done in duplicate or triplicate to allow for error analysis. Background rates were measured using an identical reaction mixture without antibody present. Michales-Menten parameters kcat and Km were derived from Eadie-Hofstee or weighted Lineweaver-Burk plots (using the computer program Enzyme Kinetics 1.0, Macintosh, Trinity Software). Inhibitory constants, Ki, were derived from Dixon or Lineweaver-Burk plots.
p-Nitrophenyl Esters as Substrates. A useful system to assess cleavage utilized substrates containing esters with p-nitrophenol leaving groups. This assay was fast, reproducible and much more trouble free than the fluorescence assays. It relied on the fact that the anion cleavage product, p-nitrophenolate, is yellow at basic pH and its appearance can be followed spectrophotometrically at 405 nm.
Antibody 6A1A6 was assayed spectrophotometrically for its ability to cleave the above mentioned substrates containing the p-nitrophenyl leaving group at 405 nm using a Molecular Devices Vmax® kinetic microplate reader. Kinetic assays were performed in triplicate at 25° C. in 40 mM TAPS, 150 mM NaCl, 10 mM MgCl2, 0.5-0.6 μM antibody, pH=9.0.
Phosphodiester Substrate. […] This represents the first report of a catalytic antibody capable of hydrolyzing a phosphodiester bond. pNPPT is normally used as a substrate for snake venom phosphodiesterase. […] The uncatalyzed rate under these conditions was 1.35×10^-6 min^-1. […] The Ki is defined as the negative x-coordinate of the intersection point of the lines in a Dixon plot.
Phosphomonoester Substrate. Under reaction condition identical to those used for pNPPT, the antibody also catalyzes the hydrolysis of p-nitrophenyl phosphate (pNPP). […] The uncatalyzed rate was 3.4×10^-6 min^-1.

[2] = system: monoclonal antibody 6A1A6 (metal dependent catalytic antibody, IgG); test: Hydrolysis of 14C-labeled ATP, ADP and AMP by antibody 6A1A6, silica TLC analysis; details: for Km / Vmax: 37° C., 0.5 mM EDTA, 1 mM MgCl2, 40 mM CHES, pH 9.0, 1.9 μM antibody
Description: as §1, with “General.” for “General. Because antibody 6A1A6, see Table 2, was metal dependent, a few precautions were taken to insure consistent results for all assays.”
as §2
Thin Layer Chromatography. Reactions were quenched and analyzed by spotting on a TLC plate. Two systems were used. PEI-cellulose coated plates were run in 1.5 M formic acid/0.5 M LiCl (Rf values: […], 0.3; Pi, 0.8). (In some cases it was useful to pre-run the TLC plate in H2 O to reduce smearing). Silica coated plates were run in isopropanol:NH4OH:H2 O, (50:25:25) (Rf values: ATP, 0.36; ADP, 0.55; AMP, 0.7; and Adenosine, 0.95). Assays involving the visualization of pyrophosphate used two TLC systems simultaneously: the silica system described (Rf values: PPi,O; Pi, 0.3), and a PEI-cellulose system run in 0.3 M sodium phosphate, pH=7.0 (Rf values: ATP, 0.2; ADP, 0.4; AMP, 0.6; PPi, 0.15; and Pi, 0.65). Radioactivity was quantitated using a Molecular Dynamics Phosphorlmager.
Kinetic Assays Using ^14 C-Labeled Compounds. Assays were performed with [8-^14 C]ATP, [8-^14 C]ADP, and [^14 C(U)]AMP. […] Immediately before each reaction, the solution was evaporated to dryness in vacuo and the compound resuspended in an equal volume of water. […] Reactions were quenched and analyzed by the silica TLC system.

[3] = molecular target: monoclonal antibody 6A1A6 (metal dependent catalytic antibody, IgG); test: Hydrolysis of oligomer T15 (DNase activity) by antibody 6A1A6, inhibition by hapten; details: substrate oligomer T15; pH 9, 1 mM Mg2+; read-out: Ki (competitive inhibition of DNase activity)
Description: as §2
It was unknown what type of specificity antibody 6A1A6 would have for a DNA polymer. Several possible activities were monitored under conditions of pH 9 and 1 mM Mg^2+ that were optimal for ATP hydrolysis.
Kinetic Parameters. Kinetic experiments were performed with T15 as a substrate. Due to the very slow rate of hydrolysis, experiments were done under single turnover conditions with enzyme excess.
Control Experiments. Standard controls were performed using oligomer T15 as a substrate. Immunoprecipitation reduced activity by 93%. The remaining activity could be due to incomplete immunoprecipitation, but could also be due to a contaminating nuclease. […] Fab fragments retained 46±17% of the original activity.

[4] = substrate pNPP, read-out: Ki (competitive inhibition of pNPP hydrolysis)

Compound	Ki [1, 4]	Km [2]	Vmax [2]	also measured
Cc1cn([C@H]2C[C@H](O)[C@@H](COP(=O)(O)Oc3ccc([N+](=O)[O-])cc3)O2)c(=O)[nH]c1=O [pNPPT, thymidine-5'-monophosphate-p-nitrophenyl ester]	–	–	–	kcat (apparent), pNPPT as substrate ([1]; 10 mM MgCl2, 40 mM TAPS, 150 mM NaCl, pH 9.0, 25° C.): 0.031±0.05 min^-1; Km ([1]; 10 mM MgCl2, 40 mM TAPS, 150 mM NaCl, pH 9.0, 25° C., read-out: Km (apparent), pNPPT as substrate): 290 ± 80 µM
O=[N+]([O-])c1ccc(O)cc1 [p-nitrophenol]	9.31 ± 1.94 µM	–	–	Ki ([1]; substrate pNPPT, product inhibition, read-out: Ki for p-nitrophenol (Dixon plot)): 10.1 ± 2.1 µM
Nc1ncnc2c1ncn2[C@@H]1O[C@H](COP(=O)(O)O)[C@@H](O)[C@H]1O [AMP]	–	161 ± 21 µM	102 ± 3 s⁻¹	–
Nc1ncnc2c1ncn2[C@@H]1O[C@H](COP(=O)(O)OP(=O)(O)OP(=O)(O)O)[C@@H](O)[C@H]1O [ATP, Adenosine triphosphate]	–	1400 ± 123 µM	–	–
thymidine 3'-O-(7-hydroxy-4-methyl coumarin) phosphorodithioate [hapten]	199 ± 54 µM	–	–	Ki ([2]; substrate ATP, read-out: Ki (competitive inhibitor of ATP hydrolysis)): 559 µM; Ki [3]: 758 ± 57 µM
Nc1ncnc2c1ncn2[C@@H]1O[C@H](COP(=O)(O)OP(=O)(O)O)[C@@H](O)[C@H]1O [ADP, adenosine diphosphate]	–	70 ± 8 µM	120 ± 20 s⁻¹	–
